{"source": "patent EP2435433B1", "about": "“(DIHYDRO)IMIDAZOISO[5,1-A]QUINOLINES AS FSH RECEPTOR AGONISTS FOR THE TREATMENT OF FERTILITY DISORDERS” (Merck Sharp & Dohme B.V., priority 2009, dated 2010)", "data": [{"molecular_target": "T1, human FSH receptor (Homo sapiens, UniProt P23945)", "T1 construct": "expressed in transfected cells; host or cells: Chinese Hamster Ovary (CHO) cells, stably transfected, cotransfected with CRE/promotor-firefly luciferase reporter", "T1 sequence (P23945 18-695)": "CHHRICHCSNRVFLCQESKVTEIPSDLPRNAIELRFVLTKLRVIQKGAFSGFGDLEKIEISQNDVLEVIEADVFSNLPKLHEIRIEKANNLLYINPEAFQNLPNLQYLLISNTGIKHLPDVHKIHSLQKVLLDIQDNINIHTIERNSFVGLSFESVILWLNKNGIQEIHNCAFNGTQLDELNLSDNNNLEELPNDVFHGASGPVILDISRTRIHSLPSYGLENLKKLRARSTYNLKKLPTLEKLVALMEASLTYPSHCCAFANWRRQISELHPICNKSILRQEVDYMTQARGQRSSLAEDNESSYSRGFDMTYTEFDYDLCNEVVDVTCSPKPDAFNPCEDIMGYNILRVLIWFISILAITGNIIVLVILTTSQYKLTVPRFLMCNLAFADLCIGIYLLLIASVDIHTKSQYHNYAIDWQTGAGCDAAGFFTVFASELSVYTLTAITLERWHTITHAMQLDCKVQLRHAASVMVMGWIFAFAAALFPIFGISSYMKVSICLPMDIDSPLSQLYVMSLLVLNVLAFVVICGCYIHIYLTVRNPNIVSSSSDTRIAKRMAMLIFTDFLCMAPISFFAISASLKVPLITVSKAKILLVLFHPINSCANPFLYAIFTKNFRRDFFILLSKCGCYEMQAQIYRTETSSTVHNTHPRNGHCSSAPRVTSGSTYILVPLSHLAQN", "assay": "Agonistic activity of compounds at the human FSH receptor expressed in CHO cells, CRE/luciferase reporter (hFSHRago (CHO luc))", "type": "cell-based", "details": "not given", "description": "(§1) The term EC50 means the concentration of the test compound that elicits half-maximal (50 %) stimulation compared to the compound's maximally attainable effect. The values can be determined e.g. in a cell line transfected with a FSH receptor gene and cotransfected with a cAMP responsive element/promoter directing the expression of a reporter gene. Values can be determined using a software program such as MathIQ (version 2.0, ID Business Solutions Limited).\n(§2) Agonistic activity of the compounds at the human FSH receptor was determined in Chinese Hamster Ovary (CHO) cells stably transfected with the human FSH receptor and cotransfected with a cAMP responsive element (CRE)/promotor directing the expression of a firefly luciferase reporter gene. Binding of the compounds to the Gs protein-coupled FSH receptor will result in an increase of cAMP, which in turn will induce an increased transactivation of the luciferase reporter. Cells (7,500 cells/well of a 384 well plate) were incubated in Dulbecco' minimal essential F12 modified medium (Invitrogen), supplemented with 1 µg/ml bovine insulin, 5 µg/ml human apo-transferrin, 80 U/ml penicillin G and 80 µg/ml streptomycin with the test compounds (concentration between 0.0316 nM and 10.0 µM) in duplicate in a humidified atmosphere (95%) at 5-7% CO2 and 37°C. The final concentration of DMSO was 1%. After 4 hours of incubation, plates were allowed to adjust to room temperature for 1 hour. Then, Luclite (PerkinElmer) solution was added to the wells and cells were allowed to lyse for at least 1 hour at room temperature. Subsequently, luciferase activity was measured in a luminescence counter. The signal is expressed as counts per second (cps). The EC50 (concentration of the test compound that elicits half-maximal (50 %) luciferase stimulation compared to the compound's maximally attainable effect) and efficacy values (maximal effect of the test compound as percentage of the maximal effect of recombinant human FSH) of the compounds were determined using the software program MathIQ (version 2.0, ID Business Solutions Limited). EC50 data are indicated at the synthesis examples.", "units": {"EC50": "nM"}, "values": [{"smiles": "COc1cc2c(cc1-c1cccnc1)-c1c(-c3cccs3)nc(C(=O)N(C)C(C)(C)C)n1CC2", "note": "[Example 2a]", "EC50": 1}]}, {"molecular_target": "T1, human FSH receptor", "assay": "Agonistic activity of compounds at the human FSH receptor expressed in CHO cells, CRE/luciferase reporter (hFSHRago (CHO luc))", "type": "cell-based", "details": "CHO cells stably transfected with the human FSH receptor and CRE/firefly luciferase reporter; 4 hours of incubation; half-maximal stimulation relative to the compound's own maximal effect; read-out: hFSHRago (CHO luc) EC50", "description": "as §1, §2", "units": {"EC50": "nM"}, "values": [{"smiles": "COc1cc2c(cc1Br)-c1c(-c3cccs3)nc(C(=O)N(C)C(C)(C)C)n1CC2", "note": "[Example 1j, 9-Bromo-8-methoxy-1-thiophen-2-yl-5,6-dihydro-imidazo[5,1-a]isoquinoline-3-carboxylic acid tert-butyl-methyl-amide]", "EC50": 36}, {"smiles": "COc1cc2c(cc1-c1ccccn1)-c1c(-c3cccs3)nc(C(=O)N(C)C(C)(C)C)n1CC2", "note": "[Example 2b, 8-Methoxy-9-pyridin-2-yl-1-thiophen-2-yl-5,6-dihydro-imidazo[5,1-a]isoquinoline-3-carboxylic acid tert-butyl-methyl-amide]", "EC50": 13}, {"smiles": "COc1cc2c(cc1-c1cccc(F)n1)-c1c(-c3cccs3)nc(C(=O)N(C)C(C)(C)C)n1CC2", "note": "[Example 2c, 9-(6-Fluoro-pyrjdin-2-yl)-8-methoxy-1-thiophen-2-yl-5,6-dihydro-imidazo[5,1-a]iso-quinoline-3-carboxylic acid tert-butyl-methyl-amide]", "EC50": 3}, {"smiles": "COc1cc2c(cc1-c1cccc(N3CCOCC3)n1)-c1c(-c3cccs3)nc(C(=O)N(C)C(C)(C)C)n1CC2", "note": "[Example 2d, 8-Methoxy-9-(6-morpholin-4-yl-pyridin-2-yl)-1-thiophen-2-yl-5,6-dihydro-imidazo[5,1-a]isoquinoline-3-carboxylic acid tert-butyl-methyl-amide]", "EC50": 100}, {"smiles": "COc1cc2c(cc1-c1cccc(C(F)(F)F)c1)-c1c(-c3cccs3)nc(C(=O)N(C)C(C)(C)C)n1CC2", "note": "[Example 2e, 8-Methoxy-1-thiophen-2-yl-9-(3-trifluoromethyl-phenyl)-5,6-dihydro-imidazo[5,1-a]isoquinoline-3-carboxylic acid tert-butyl-methyl-amide]", "EC50": 65}, {"smiles": "COc1cc2c(cc1-c1cccc(NC(C)=O)c1)-c1c(-c3cccs3)nc(C(=O)N(C)C(C)(C)C)n1CC2", "note": "[Example 2f, 9-(3-Acetylamino-phenyl)-8-methoxy-1-thiophen-2-yl-5,6-dihydro-imidazo[5,1-a]iso-quinoline-3-carboxylic acid tert-butyl-methyl-amide]", "EC50": 1}, {"smiles": "COc1cc2c(cc1-c1cccc(-n3cccn3)c1)-c1c(-c3cccs3)nc(C(=O)N(C)C(C)(C)C)n1CC2", "note": "[Example 2g, 8-Methoxy-9-(3-pyrazol-1-yl-phenyl)-1-thiophen-2-yl-5,6-dihydro-imidazo[5,1-a]iso-quinoline-3-carboxylic acid tert-butyl-methyl-amide]", "EC50": 2}, {"smiles": "COc1cc2c(cc1-c1cccc(N3CCOCC3)c1)-c1c(-c3cccs3)nc(C(=O)N(C)C(C)(C)C)n1CC2", "note": "[Example 2h, 8-Methoxy-9-(3-morpholin-4-yl-phenyl)-1-thiophen-2-yl-5,6-dihydro-imidazo[5,1-a]iso-quinoline-3-carboxylic acid tert-butyl-methyl-amide]", "EC50": 2}, {"smiles": "COc1cc2c(cc1-c1cccc(F)c1)-c1c(-c3cccs3)nc(C(=O)N(C)C(C)(C)C)n1CC2", "note": "[Example 2i, 9-(3-Fluoro-phenyl)-8-methoxy-1-thiophen-2-yl-5,6-dihydro-imidazo[5,1-a]isoquinoline-3-carboxylic acid tert-butyl-methyl-amide]", "EC50": 3}, {"smiles": "COc1cc2c(cc1-c1ccccc1C#N)-c1c(-c3cccs3)nc(C(=O)N(C)C(C)(C)C)n1CC2", "note": "[Example 2j, 9-(2-Cyano-phenyl)-8-methoxy-1-thiophen-2-yl-5,6-dihydro-imidazo[5,1-a]isoquinoline-3-carboxylic acid tert-butyl-methyl-amide]", "EC50": 5}, {"smiles": "COc1cc2c(cc1-c1cccc(N)c1)-c1c(-c3cccs3)nc(C(=O)N(C)C(C)(C)C)n1CC2", "note": "[Example 2k, 9-(3-Amino-phenyl)-8-methoxy-1-thiophen-2-yl-5,6-dihydro-imidazo[5,1-a]isoquinoline-3-carboxylic acid tert-butyl-methyl-amide]", "EC50": 8}, {"smiles": "COc1cc2c(cc1-c1cccc(N(C)C)c1)-c1c(-c3cccs3)nc(C(=O)N(C)C(C)(C)C)n1CC2", "note": "[Example 2l, 9-(3-Dimethylamino-phenyl)-8-methoxy-1-thiophen-2-yl-5,6-dihydro-imidazo[5,1-a]iso-quinoline-3-carboxylic acid tert-butyl-methyl-amide]", "EC50": 9}, {"smiles": "COc1cc2c(cc1-c1c(C)noc1C)-c1c(-c3cccs3)nc(C(=O)N(C)C(C)(C)C)n1CC2", "note": "[Example 2m, 9-(3,5-Dimethyl-isoxazol-4-yl)-8-methoxy-1-thiophen-2-yl-5,6-dihydro-imidazo[5,1-a]iso-quinoline-3-carboxylic acid tert-butyl-methyl-amide]", "EC50": 9}, {"smiles": "COc1cc2c(cc1-c1cccc(C(=O)N(C)C)c1)-c1c(-c3cccs3)nc(C(=O)N(C)C(C)(C)C)n1CC2", "note": "[Example 2n, 9-(3-Dimethylcarbamoyl-phenyl)-8-methoxy-1-thiophen-2-yl-5,6-dihydro-imidazo[5,1-a]iso-quinoline-3-carboxylic acid tert-butyl-methyl-amide]", "EC50": 11}, {"smiles": "COc1cc2c(cc1-c1cccc(N3CCN(C(=O)OC(C)(C)C)CC3)c1)-c1c(-c3cccs3)nc(C(=O)N(C)C(C)(C)C)n1CC2", "note": "[Example 2o]", "EC50": 14}, {"smiles": "COc1cc2c(cc1-c1cccc(S(C)(=O)=O)c1)-c1c(-c3cccs3)nc(C(=O)N(C)C(C)(C)C)n1CC2", "note": "[Example 2p, 9-(3-Methanesulfonyl-phenyl)-8-methoxy-1-thiophen-2-yl-5,6-dihydro-imidazo[5,1-a]iso-quinoline-3-carboxylic acid tert-butyl-methyl-amide]", "EC50": 15}, {"smiles": "COc1ccccc1-c1cc2c(cc1OC)CCn1c(C(=O)N(C)C(C)(C)C)nc(-c3cccs3)c1-2", "note": "[Example 2q, 8-Methoxy-9-(2-methoxy-phenyl)-1-thiophen-2-yl-5,6-dihydro-imidazo [5,1-a]isoquinoline-3-carboxylic acid tert-butyl-methyl-amide]", "EC50": 50}, {"smiles": "COc1cc2c(cc1-c1ccc3c(c1)OCO3)-c1c(-c3cccs3)nc(C(=O)N(C)C(C)(C)C)n1CC2", "note": "[Example 2r, 9-Benzo[1,3]dioxol-5-yl-8-methoxy-1-thiophen-2-yl-5,6-dihydro-imidazo[5,1-a]iso-quinoline-3-carboxylic acid tert-butyl-methyl-amide]", "EC50": 167}, {"smiles": "C=Cc1cc2c(cc1OC)CCn1c(C(=O)N(C)C(C)(C)C)nc(-c3cccs3)c1-2", "note": "[Example 3b, 8-Methoxy-1-thiophen-2-yl-9-vinyl-5,6-dihydro-imidazo[5,1-a]isoquinoline-3-carboxylic acid tert-butyl-methyl-amide]", "EC50": 28}, {"smiles": "COc1cc2c(cc1C(=O)Nc1nncs1)-c1c(-c3cccs3)nc(C(=O)N(C)C(C)(C)C)n1CC2", "note": "[Example 3e, 8-Methoxy-1-thiophen-2-yl-5,6-dihydro-imidazo[5,1-a]isoquinoline-3,9-dicarboxylic acid 3-(tert-butyl-methyl-amide) 9-[1,3,4]thiadiazol-2-ylamide]", "EC50": 3}, {"smiles": "CCc1nnc(NC(=O)c2cc3c(cc2OC)CCn2c(C(=O)N(C)C(C)(C)C)nc(-c4cccs4)c2-3)s1", "note": "[Example 4, 8-Methoxy-1-thiophen-2-yl-5,6-dihydro-imidazo[5,1-a]isoquinoline-3,9-dicarboxylic acid 3-(tert-butyl-methyl-amide) 9-[(5-ethyl-[1,3,4]thiadiazol-2-yl)-amide]]", "EC50": 58}]}]}
